Data reported in patent publication US20250353841A1 (BIOGEN MA INC., priority 2022, published 2025).

Tested on: mutant Huntington (HTT) protein
Assay: HTT Mutant HTRF iPSC assay (mHTT protein lowering)
Format: cell-based
Conditions: human iPSC derived from a HTT patient with a poly-Q49 mutation

SMILES	IC50 [nM]
Cc1cn2nc(-c3cc(F)c4[nH]c(C5CC6(CCNC6)C5)nc4c3)cc(C)c2n1 (stereo not drawn) [Compound 420, 6-(7-fluoro-2-(6-azaspiro[3.4]octan-2-yl)-1H-benzo[d]imidazol-5-yl)-2,8-dimethylimidazo[1,2-b]pyridazine]	100 to 1000
Cc1cn2nc(-c3cc(F)c4nc(NC(=O)C5CCCNC5)cn4c3)cc(C)c2n1 (stereo not drawn) [Compound 248, N-(6-(2,8-dimethylimidazo[1,2-b]pyridazin-6-yl)-8-fluoroimidazo[1,2-a]pyridin-2-yl)piperidine-3-carboxamide]	< 100
CCN1CC[C@H](N(C)c2nc3c(F)cc(-c4cc(C)c5nc(C)cn5n4)cc3o2)C[C@@H]1C (stereo in doubt) [Compound 486, rel-6-(2,8-dimethylimidazo[1,2-b]pyridazin-6-yl)-N-((2R,4R)-1-ethyl-2-methylpiperidin-4-yl)-4-fluoro-N-methylbenzo[d]oxazol-2-amine]	< 100
Cc1cn2cc(-c3cc(F)c4nc(C5CCNCC5)nn4c3)cc2c(C)n1 [Compound 431, 6-(1,3-dimethylpyrrolo[1,2-a]pyrazin-7-yl)-8-fluoro-2-(piperidin-4-yl)-[1,2,4]triazolo[1,5-a]pyridine]	100 to 1000
Cc1cn2nc(-c3cc(F)c4nc(C5CCN(C6(C)CC6)CC5)cn4c3)cc(C)c2n1 [Compound 226, 6-[8-fluoro-2-[1-(1-methylcyclopropyl)-4-piperidyl]imidazo[1,2-a]pyridin-6-yl]-2,8-dimethyl-imidazo[1,2-b]pyridazine]	100 to 1000
Cc1cc(-c2cc(F)c3nn(C4CCNCC4)nc3c2)nc2cn(C)nc12 [Compound 381, 6-(2,7-dimethyl-2H-pyrazolo[4,3-b]pyridin-5-yl)-4-fluoro-2-(piperidin-4-yl)-2H-benzo[d][1,2,3]triazole]	100 to 1000
CCc1nc(C)cn2cc(-c3cc(F)c4nc(C5CCNCC5)cn4c3)cc12 [Compound 30, 6-(1-ethyl-3-methylpyrrolo[1,2-a]pyrazin-7-yl)-8-fluoro-2-(piperidin-4-yl)imidazo[1,2-a]pyridine]	< 100
Cn1cc2cc(-c3cc(F)c4nc(C5CNC5)cn4c3)cc(F)c2n1 [Compound 23, 5-(2-(azetidin-3-yl)-8-fluoroimidazo[1,2-a]pyridin-6-yl)-7-fluoro-2-methyl-2H-indazole]	1000 to 9000
Cc1nc2c(F)cc(-c3cc(F)c4nc(C5CCNCC5)cn4c3)cc2s1 [Compound 90, 4-fluoro-6-(8-fluoro-2-(piperidin-4-yl)imidazo[1,2-a]pyridin-6-yl)-2-methylbenzo[d]thiazole]	1000 to 9000
Fc1cc(-c2ccn3nc(Br)cc3n2)cn2cc(C3CCNCC3)nc12 [Compound 199, 2-bromo-5-(8-fluoro-2-(piperidin-4-yl)imidazo[1,2-a]pyridin-6-yl)pyrazolo[1,5-a]pyrimidine]	100 to 1000
Cc1cn2nc(-c3cc(F)c4nc([C@@H]5CCNC5)cn4c3)cc(C)c2n1 (single isomer, unassigned) [Compound 189]	< 100
Cc1cn2nc(-c3cc(F)c4nc(CC5CNC5)cn4c3)cc(C)c2n1 [Compound 13, 6-(2-(azetidin-3-ylmethyl)-8-fluoroimidazo[1,2-a]pyridin-6-yl)-2,8-dimethylimidazo[1,2-b]pyridazine]	100 to 1000
Cn1cc2cc(-c3cc(F)c4nn(C5CCNCC5)nc4c3)cc(C(F)F)c2n1 [Compound 382, 6-(7-(difluoromethyl)-2-methyl-2H-indazol-5-yl)-4-fluoro-2-(piperidin-4-yl)-2H-benzo[d][1,2,3]triazole]	100 to 1000
Cn1cc2cc(-c3cc(F)c4nc(C5CCNC(C)(C)C5)cn4c3)cc(F)c2n1 (stereo not drawn) [Compound 63, 5-(2-(2,2-dimethylpiperidin-4-yl)-8-fluoroimidazo[1,2-a]pyridin-6-yl)-7-fluoro-2-methyl-2H-indazole]	1000 to 9000
Cn1ncc2cc(-c3cc(F)c4nc(C5CCNCC5)cn4c3)cc(F)c21 [Compound 104, 7-fluoro-5-(8-fluoro-2-(piperidin-4-yl)imidazo[1,2-a]pyridin-6-yl)-1-methyl-1H-indazole]	1000 to 9000
Cc1cn2nc(-c3cc(F)c4nc(NC5CCN6CCCC6C5)oc4c3)cc(C)c2n1 (stereo not drawn) [Compound 482, 6-(2,8-dimethylimidazo[1,2-b]pyridazin-6-yl)-4-fluoro-N-(octahydroindolizin-7-yl)benzo[d]oxazol-2-amine]	< 100
Cc1cn2nc(-c3cc(F)c4nc(N5CCC6(CCN(C)CC6)C5)oc4c3)cc(C(F)F)c2n1 [Compound 507, 6-(8-(difluoromethyl)-2-methylimidazo[1,2-b]pyridazin-6-yl)-4-fluoro-2-(8-methyl-2,8-diazaspiro[4.5]decan-2-yl)benzo[d]oxazole]	< 100
CCN1CCC(c2cc(F)c3nc(-c4cc(C)c5nc(C)cn5n4)cn3c2)CC1 [Compound 132]	1000 to 9000

SMILES	IC50 [nM]
Cc1cn2nc(-c3cc(F)c4nc(N5CCNCC5)cn4c3)cc(C)c2n1 [Compound 127, 6-(8-fluoro-2-piperazin-1-yl-imidazo[1,2-a]pyridin-6-yl)-2,8-dimethyl-imidazo[1,2-b]pyridazine]	1000 to 9000
CC(C)N1CC(C(=O)Nc2cn3cc(-c4cc(F)c5nn(C)cc5c4)cc(F)c3n2)C1 [Compound 291, N-(8-fluoro-6-(7-fluoro-2-methyl-2H-indazol-5-yl)imidazo[1,2-a]pyridin-2-yl)-1-isopropylazetidine-3-carboxamide]	100 to 1000
COCCCN1CCC(c2cn3cc(-c4cc(C)c5nc(C)cn5n4)cc(F)c3n2)CC1 [Compound 45, 6-(8-fluoro-2-(1-(3-methoxypropyl)piperidin-4-yl)imidazo[1,2-a]pyridin-6-yl)-2,8-dimethylimidazo[1,2-b]pyridazine]	< 100
Cc1cn2nc(-c3cc(F)c4nc(NC(=O)C5CCCN(C)C5)nn4c3)cc(C)c2n1 (single isomer, unassigned) [Compound 326]	100 to 1000
Cc1cn2nc(-c3cc(F)c4nn(C5CC6(CCNC6)C5)nc4c3)cc(C)c2n1 (stereo not drawn) [Compound 398, 6-(2,8-dimethylimidazo[1,2-b]pyridazin-6-yl)-4-fluoro-2-(6-azaspiro[3.4]octan-2-yl)-2H-benzo[d][1,2,3]triazole]	< 100
Cc1cn2nc(-c3cc(F)c4nc([C@H]5[C@@H]6CN(CC7CC7)C[C@@H]65)cn4c3)cc(C)c2n1 [Compound 212, 6-(2-((1R,5S,6r)-3-(cyclopropylmethyl)-3-azabicyclo[3.1.0]hexan-6-yl)-8-fluoroimidazo[1,2-a]pyridin-6-yl)-2,8-dimethylimidazo[1,2-b]pyridazine]	< 100
CN1CCC(c2cn3cc(-c4ccc5nn(C)cc5c4)cc(F)c3n2)CC1 [Compound 28, 5-(8-fluoro-2-(1-methylpiperidin-4-yl)imidazo[1,2-a]pyridin-6-yl)-2-methyl-2H-indazole]	1000 to 9000
Cc1cn2nc(-c3cc(F)c4[nH]c(C5CCC6(CC5)CNC6)nc4c3)cc(C)c2n1 [Compound 424, 6-(7-fluoro-2-(2-azaspiro[3.5]nonan-7-yl)-1H-benzo[d]imidazol-5-yl)-2,8-dimethylimidazo[1,2-b]pyridazine]	100 to 1000
COCCN1CCC(c2cn3cc(-c4cc5c(C)nc(C)cn5n4)cc(F)c3n2)CC1 [Compound 221, 2-(8-fluoro-2-(1-(2-methoxyethyl)piperidin-4-yl)imidazo[1,2-a]pyridin-6-yl)-4,6-dimethylpyrazolo[1,5-a]pyrazine]	< 100
Cc1cn2nc(-c3cc(F)c4nc([C@H]5C[C@]6(CCNC6)C5)cn4c3)cc(C)c2n1 [Compound 191, 6-(8-fluoro-2-((2s,4s)-6-azaspiro[3.4]octan-2-yl)imidazo[1,2-a]pyridin-6-yl)-2,8-dimethylimidazo[1,2-b]pyridazine]	< 100
Cc1cn2nc(-c3cc(F)c4nc(NC(=O)C5CCN(C)CC5)nn4c3)cc(C)c2n1 [Compound 327, N-(6-(2,8-dimethylimidazo[1,2-b]pyridazin-6-yl)-8-fluoro-[1,2,4]triazolo[1,5-a]pyridin-2-yl)-1-methylpiperidine-4-carboxamide]	< 100
Cc1cn2nc(-c3cc(F)c4nc(NC(=O)C5CCCC(N(C)C)C5)cn4c3)cc(C)c2n1 (racemic) [Compound 247, 3-(dimethylamino)-N-(6-(2,8-dimethylimidazo[1,2-b]pyridazin-6-yl)-8-fluoroimidazo[1,2-a]pyridin-2-yl)cyclohexane-1-carboxamide]	100 to 1000
Cc1cc2nc(-c3cc(F)c4nc(C5CCNCC5)cn4c3)ncc2s1 [Compound 201, 2-(8-fluoro-2-(piperidin-4-yl)imidazo[1,2-a]pyridin-6-yl)-6-methylthieno[3,2-d]pyrimidine]	100 to 1000
COCCN1C[C@@H]2[C@H](C1)[C@H]2c1cn2cc(-c3cc(C)c4nc(C)cn4n3)cc(F)c2n1 [Compound 187, 6-(8-fluoro-2-((1R,5S,6r)-3-(2-methoxyethyl)-3-azabicyclo[3.1.0]hexan-6-yl)imidazo[1,2-a]pyridin-6-yl)-2,8-dimethylimidazo[1,2-b]pyridazine]	< 100
Cc1nc2c(F)cc(-c3cc(F)c4nc(C5CCNCC5)cn4c3)cc2o1 [Compound 82, 4-fluoro-6-(8-fluoro-2-(piperidin-4-yl)imidazo[1,2-a]pyridin-6-yl)-2-methylbenzo[d]oxazole]	< 100
Cc1cn2nc(-c3cc(F)c4nc([C@H]5[C@@H]6CN(C)C[C@@H]65)cn4c3)cc(C(F)F)c2n1 [Compound 233, 8-(difluoromethyl)-6-(8-fluoro-2-((1R,5S,6r)-3-methyl-3-azabicyclo[3.1.0]hexan-6-yl)imidazo[1,2-a]pyridin-6-yl)-2-methylimidazo[1,2-b]pyridazine]	< 100
Cc1cn2nc(-c3cc(F)c4nn(CC5CCNC5)nc4c3)cc(C)c2n1 (stereo not drawn) [Compound 386, 6-(2,8-dimethylimidazo[1,2-b]pyridazin-6-yl)-4-fluoro-2-(pyrrolidin-3-ylmethyl)-2H-benzo[d][1,2,3]triazole]	< 100
Cc1cn2nc(-c3cc(F)c4nc([C@H]5C[C@@H](C)N[C@@H](C)C5)cn4c3)cc(C)c2n1 [Compound 215, 6-(2-((2S,4r,6R)-2,6-dimethylpiperidin-4-yl)-8-fluoroimidazo[1,2-a]pyridin-6-yl)-2,8-dimethylimidazo[1,2-b]pyridazine]	< 100
